The text below walks through data of patent US4311698A, “Aminoacid derivatives of cephalosporin compounds” (priority 1980, dated 1982).

Assay type in all cases: cell-based
One experiment relates to Pseudomonas #28. Nature of the experiment: In vitro minimal inhibitory concentration, Pseudomonas #28. Particulars: for MIC: read-out: Minimal Inhibitory Concentration.
In a further experiment the test system is Pseudomonas BRK 12-4-4. Nature of the experiment: In vitro minimal inhibitory concentration, Pseudomonas BRK 12-4-4. The note with it: for MIC: BRK1244.
For another experiment, the system named is Pseudomonas UI 18. Nature of the experiment: In vitro minimal inhibitory concentration, Pseudomonas UI 18. The note with it: for MIC: UI18.
The next experiment concerns E. Coli. Brig. Nature of the experiment: In vitro minimal inhibitory concentration, E. Coli. Brig. The note with it: for MIC: Escherichia coli.
The subject of the next experiment is E. Coli. Vogel. Kind of experiment: In vitro minimal inhibitory concentration, E. Coli. Vogel. The note with it: for MIC: Escherichia coli.
Another experiment relates to Prot Vulg. Kind of experiment: In vitro minimal inhibitory concentration, Prot Vulg.
For the next experiment, the system named is Entero Cloac. IM 11. Nature of the experiment: In vitro minimal inhibitory concentration, Entero Cloac. IM 11.
The test system of the next experiment is Serr. Mar. IMM 16. Kind of experiment: In vitro minimal inhibitory concentration, Serr. Mar. IMM 16.
Another experiment has as its system Klebs. Pneum. MGH 2. Nature of the experiment: In vitro minimal inhibitory concentration, Klebs. Pneum. MGH 2.
The test system of a further experiment is Strep. fec. MGH 2. Nature of the experiment: In vitro minimal inhibitory concentration, Strep. fec. MGH 2.
A further experiment concerns Staph UC76. Nature of the experiment: In vitro minimal inhibitory concentration, Staph UC76.
For a further experiment, the system named is Staph S 18713. Kind of experiment: In vitro minimal inhibitory concentration, Staph S 18713.

Molecules are shown by their SMILES. Values after ≈ are worked out from the molar mass of the structure shown. Where two headings read alike, the source gives them in different places. Some results are limits rather than exact numbers.

As to `CC(=O)N[C@H](C)C(=O)Nc1cccc(-c2ccc(C(=O)N[C@@H](C(=O)NC3C(=O)N4C(C(=O)O)=C(COC(C)=O)CSC34)c3ccccc3)c(=O)[nH]2)c1` (stereo partly drawn) [Example 28], the MIC in the experiment on Pseudomonas #28 (Pseudomonas #28, in vitro) was found to be 12.5 µg/mL (≈ 17.1 µM); against Pseudomonas BRK 12-4-4, 25 µg/mL (≈ 34.2 µM); in the experiment with Pseudomonas UI 18 it was 12.5 µg/mL (≈ 17.1 µM); in the experiment with E. Coli. Brig, 25 µg/mL (≈ 34.2 µM); with E. Coli. Vogel, 12.5 µg/mL (≈ 17.1 µM); in the experiment on Prot Vulg., 50 µg/mL (≈ 68.4 µM). For the same molecule, the MIC in the experiment with Entero Cloac. IM 11 was 50 µg/mL (≈ 68.4 µM); against Serr. Mar. IMM 16, more than 50 µg/mL; against Klebs. Pneum. MGH 2 it was 25 µg/mL (≈ 34.2 µM); with Strep. fec. MGH 2 it was 25 µg/mL (≈ 34.2 µM); against Staph UC76 it was 1.6 µg/mL (≈ 2.19 µM); against Staph S 18713, 1.6 µg/mL (≈ 2.19 µM).

With `CC(=O)OCC1=C(C(=O)O)N2C(=O)C(NC(=O)[C@H](NC(=O)c3ccc(-c4ccc(NC(=O)[C@@H](C)N)cc4)[nH]c3=O)c3ccccc3)C2SC1` (stereo partly drawn) [Example 29, N-[6-[4-(D-Alanylamino)phenyl]-1,2-dihydro-2-oxonicotinyl]-7-[D-2-amino-2-phenylacetamido]-3-acetoxymethyl-3-cephem-4-carboxylic acid], the “Minimal Inhibitory Concentration” value in the experiment on Pseudomonas #28 (Pseudomonas #28, in vitro) came to 1.6 µg/mL; with Pseudomonas BRK 12-4-4 it was 1.6 µg/mL; with Pseudomonas UI 18, 1.6 µg/mL; in the experiment with E. Coli. Brig it was 6.3 µg/mL; in the experiment on E. Coli. Vogel, 1.6 µg/mL; with Prot Vulg. it was 6.3 µg/mL. Also, the “Minimal Inhibitory Concentration” value is 12.5 µg/mL with Entero Cloac. IM 11; 25 µg/mL with Serr. Mar. IMM 16; 6.3 µg/mL with Klebs. Pneum. MGH 2; 12.5 µg/mL in the experiment on Strep. fec. MGH 2; 0.4 µg/mL with Staph UC76; 1.6 µg/mL in the experiment on Staph S 18713.

In the case of `CC(=O)N1CC(O)C[C@H]1C(=O)Nc1ccc(-c2ccc(C(=O)N[C@@H](C(=O)NC3C(=O)N4C(C(=O)O)=C(CSc5nnnn5CC(=O)O)CSC34)c3ccccc3)c(=O)[nH]2)cc1` (stereo partly drawn) [Example 30, N-[6-[4-(N-Acetyl-4-hydroxy-L-prolylamino)phenyl]-1,2-dihydro-2-oxonicotinyl]-7-[D-2-amino-2-phenylacetamido]-3-[[(1-carboxymethyl-1H-tetrazol-5-yl)thio]methyl]-3-cephem-4-carboxylic acid], the MIC in the experiment on Pseudomonas #28 (Pseudomonas #28, in vitro) turned out to be 6.3 µg/mL (≈ 7.22 µM); with Pseudomonas BRK 12-4-4, 12.5 µg/mL (≈ 14.3 µM); in the experiment on Pseudomonas UI 18, 6.3 µg/mL (≈ 7.22 µM); in the experiment on E. Coli. Brig it was 3.1 µg/mL (≈ 3.55 µM); against E. Coli. Vogel, 0.8 µg/mL (≈ 0.916 µM); with Prot Vulg., 1.6 µg/mL (≈ 1.83 µM). Further, the MIC against Entero Cloac. IM 11 is 3.1 µg/mL (≈ 3.55 µM); against Serr. Mar. IMM 16, 12.5 µg/mL (≈ 14.3 µM); in the experiment with Klebs. Pneum. MGH 2, 1.6 µg/mL (≈ 1.83 µM); against Strep. fec. MGH 2, more than 50 µg/mL; with Staph UC76, 6.3 µg/mL (≈ 7.22 µM); against Staph S 18713 it was 25 µg/mL (≈ 28.6 µM).

`CC(=O)OCC1=C(C(=O)O)N2C(=O)C(NC(=O)[C@H](NC(=O)c3ccc(-c4ccc(NC(=O)[C@@H]5CC(O)CN5C(C)=O)cc4)[nH]c3=O)c3ccccc3)C2SC1` (stereo partly drawn) [Example 31, N-[6-[4-(N-Acetyl-4-hydroxy-L-prolylamino)phenyl]-1,2-dihydro-2-oxonicotinyl]-7-[D-2-amino-2-phenylacetamido]-3-acetoxymethyl-3-cephem-4-carboxylic acid]: the MIC in the experiment with Pseudomonas #28 (Pseudomonas #28, in vitro) was determined as 12.5 µg/mL (≈ 16.2 µM); in the experiment on Pseudomonas BRK 12-4-4 it was 12.5 µg/mL (≈ 16.2 µM); in the experiment on Pseudomonas UI 18 it was 12.5 µg/mL (≈ 16.2 µM); in the experiment with E. Coli. Brig it was 12.5 µg/mL (≈ 16.2 µM); against E. Coli. Vogel, 3.1 µg/mL (≈ 4.01 µM); with Prot Vulg. it was 25 µg/mL (≈ 32.4 µM). In addition, the MIC against Entero Cloac. IM 11 was 12.5 µg/mL (≈ 16.2 µM); against Serr. Mar. IMM 16, more than 50 µg/mL; against Klebs. Pneum. MGH 2, 6.3 µg/mL (≈ 8.15 µM); against Strep. fec. MGH 2, 25 µg/mL (≈ 32.4 µM); in the experiment on Staph UC76 it was 0.8 µg/mL (≈ 1.04 µM); against Staph S 18713, 25 µg/mL (≈ 32.4 µM).

In the case of `CC(=O)OCC1=C(C(=O)O)N2C(=O)C(NC(=O)[C@H](NC(=O)c3ccc(-c4ccc(NC(=O)[C@@H]5CC(OC(C)=O)CN5C(C)=O)cc4)[nH]c3=O)c3ccccc3)C2SC1` (stereo partly drawn) [Example 32, N-[6-[4-[N-Acetyl-4-(acetyloxy)-L-prolylamino]phenyl]-1,2-dihydro-2-oxoniotinyl]-7-[D-2-amino-2-phenylacetamido]-3-acetoxymethyl-3-cephem-4-carboxylic acid], the MIC in the experiment with Pseudomonas #28 (Pseudomonas #28, in vitro) was 12.5 µg/mL (≈ 15.3 µM); in the experiment with Pseudomonas BRK 12-4-4 it was 25 µg/mL (≈ 30.7 µM); against Pseudomonas UI 18 it was 12.5 µg/mL (≈ 15.3 µM); against E. Coli. Brig, 25 µg/mL (≈ 30.7 µM); against E. Coli. Vogel, 6.3 µg/mL (≈ 7.73 µM); against Prot Vulg., 25 µg/mL (≈ 30.7 µM). Besides, the MIC is 25 µg/mL (≈ 30.7 µM) in the experiment with Entero Cloac. IM 11; more than 50 µg/mL in the experiment with Serr. Mar. IMM 16; 12.5 µg/mL (≈ 15.3 µM) in the experiment on Klebs. Pneum. MGH 2; 25 µg/mL (≈ 30.7 µM) in the experiment on Strep. fec. MGH 2; 1.6 µg/mL (≈ 1.96 µM) with Staph UC76; 6.3 µg/mL (≈ 7.73 µM) in the experiment on Staph S 18713.

Take `CC(=O)OCC1=C(C(=O)O)N2C(=O)C(NC(=O)[C@H](NC(=O)c3ccc(-c4ccc(NC(=O)[C@@H]5CCC(=O)N5C)cc4)[nH]c3=O)c3ccccc3)C2SC1` (stereo partly drawn) [Example 34, N-[6-[4-[N-Methyl-5-oxo-L-prolylamino]phenyl]-1,2-dihydro-2-oxo-nicotinyl]-7-[D-2-amino-2-phenylacetamido]-3-acetoxymethyl-3-cephem-4-carboxylic acid]: the MIC came out at 6.3 µg/mL (≈ 8.48 µM) in the experiment with Pseudomonas #28 (Pseudomonas #28, in vitro); 12.5 µg/mL (≈ 16.8 µM) against Pseudomonas BRK 12-4-4; 6.3 µg/mL (≈ 8.48 µM) against Pseudomonas UI 18; 12.5 µg/mL (≈ 16.8 µM) against E. Coli. Brig; 3.1 µg/mL (≈ 4.17 µM) in the experiment on E. Coli. Vogel; 12.5 µg/mL (≈ 16.8 µM) against Prot Vulg.. Also, the MIC is 12.5 µg/mL (≈ 16.8 µM) in the experiment with Entero Cloac. IM 11; 50 µg/mL (≈ 67.3 µM) in the experiment with Serr. Mar. IMM 16; 6.3 µg/mL (≈ 8.48 µM) in the experiment with Klebs. Pneum. MGH 2; 25 µg/mL (≈ 33.7 µM) in the experiment on Strep. fec. MGH 2; 0.4 µg/mL (≈ 0.539 µM) against Staph UC76; 3.1 µg/mL (≈ 4.17 µM) against Staph S 18713.

With `CC(=O)NCCCC[C@H](NC(C)=O)C(=O)Nc1ccc(-c2ccc(C(=O)N[C@@H](C(=O)NC3C(=O)N4C(C(=O)O)=C(COC(C)=O)CSC34)c3ccccc3)c(=O)[nH]2)cc1` (stereo partly drawn) [Example 35, N-[6-[4-(N,N'-Diacetyl-L-lysylamino)phenyl]-1,2-dihydro-2-oxonicotinyl]-7-[D-2-amino-2-phenylacetamido]-3-acetoxymethyl-3-cephem-4-carboxylic acid], the MIC with Pseudomonas #28 (Pseudomonas #28, in vitro) was 12.5 µg/mL (≈ 15.1 µM); in the experiment with Pseudomonas BRK 12-4-4 it was 12.5 µg/mL (≈ 15.1 µM); in the experiment with Pseudomonas UI 18 it was 6.3 µg/mL (≈ 7.59 µM); against E. Coli. Brig it was 25 µg/mL (≈ 30.1 µM); in the experiment with E. Coli. Vogel it was 6.3 µg/mL (≈ 7.59 µM); with Prot Vulg., more than 50 µg/mL. The MIC with Entero Cloac. IM 11 is 12.5 µg/mL (≈ 15.1 µM); against Serr. Mar. IMM 16, more than 50 µg/mL; with Klebs. Pneum. MGH 2 it was 12.5 µg/mL (≈ 15.1 µM); against Strep. fec. MGH 2 it was 25 µg/mL (≈ 30.1 µM); against Staph UC76, 3.1 µg/mL (≈ 3.74 µM); in the experiment on Staph S 18713, 6.3 µg/mL (≈ 7.59 µM).

As to `CC(=O)N[C@H](C)C(=O)Nc1ccc(-c2ccc(C(=O)N[C@@H](C(=O)NC3C(=O)N4C(C(=O)O)=C(CSc5nnnn5CCC(=O)O)CSC34)c3ccccc3)c(=O)[nH]2)cc1` (stereo partly drawn) [Example 41], the MIC is 6.3 µg/mL (≈ 7.46 µM) in the experiment on Pseudomonas #28 (Pseudomonas #28, in vitro); 12.5 µg/mL (≈ 14.8 µM) in the experiment with Pseudomonas BRK 12-4-4; 12.5 µg/mL (≈ 14.8 µM) against Pseudomonas UI 18; 6.3 µg/mL (≈ 7.46 µM) in the experiment on E. Coli. Brig; 0.8 µg/mL (≈ 0.947 µM) against E. Coli. Vogel; 3.1 µg/mL (≈ 3.67 µM) against Prot Vulg.. For the same molecule, the MIC in the experiment on Entero Cloac. IM 11 was determined as 6.3 µg/mL (≈ 7.46 µM); against Serr. Mar. IMM 16, 12.5 µg/mL (≈ 14.8 µM); against Klebs. Pneum. MGH 2 it was 1.6 µg/mL (≈ 1.89 µM); against Strep. fec. MGH 2 it was 50 µg/mL (≈ 59.2 µM); against Staph UC76 it was 3.1 µg/mL (≈ 3.67 µM); in the experiment on Staph S 18713, 12.5 µg/mL (≈ 14.8 µM).

As to `CC(=O)N[C@@H](CCC(N)=O)C(=O)Nc1ccc(-c2ccc(C(=O)N[C@@H](C(=O)NC3C(=O)N4C(C(=O)O)=C(CSc5nnnn5CS(=O)(=O)O)CSC34)c3ccccc3)c(=O)[nH]2)cc1` (stereo partly drawn) [Example 42, N-[6-[4-(N-Acetyl-L-glutaminylamino)phenyl]-1,2-dihydro-2-oxonicotinyl]-7-[D-2-amino-2-phenylacetamido]-3-[[(1-sulfomethyl-1H-tetrazol-5-yl)thio]methyl]-3-cephem-4-carboxylic acid], the MIC with Pseudomonas #28 (Pseudomonas) came out at 12.5 µg/mL (≈ 13.5 µM); with Pseudomonas BRK 12-4-4 it was 6.3 µg/mL (≈ 6.82 µM); against Pseudomonas UI 18, 6.3 µg/mL (≈ 6.82 µM); in the experiment with E. Coli. Brig, 6.3 µg/mL (≈ 6.82 µM); against E. Coli. Vogel, 0.8 µg/mL (≈ 0.866 µM); in the experiment on Prot Vulg. it was 3.1 µg/mL (≈ 3.36 µM). In addition, the MIC with Entero Cloac. IM 11 is 6.3 µg/mL (≈ 6.82 µM); with Serr. Mar. IMM 16, 12.5 µg/mL (≈ 13.5 µM); against Klebs. Pneum. MGH 2, 3.1 µg/mL (≈ 3.36 µM); in the experiment with Strep. fec. MGH 2, more than 50 µg/mL; against Staph UC76, 6.3 µg/mL (≈ 6.82 µM); against Staph S 18713, 12.5 µg/mL (≈ 13.5 µM).
